This passage reports IC50 results from US7671054B1, “Reverse-turn mimetics and method relating thereto” (Choongwae Pharma Corporation, priority 2001, dated 2010).

This assay concerns TCF4/β-catenin transcription (TOPFlash) in SW480 cells. As to the kind of experiment: Reporter gene assay (TOPFlash luciferase). In kind it is cell-based. Particulars: Homo sapiens, SW480, Table 4; Reporter gene assay as described in Example 6; read-out: IC50. The procedure:
SW480 cells were transfected with the usage of Superfect™ transfect reagent (Qiagen, 301307). Cells were trypsinized briefly 1 day before transfection and plated on 6 well plate (5×10^5 cells/well) so that they were 50-80% confluent on the day of transfection.
Four microgram (TOPFlash) and one microgram (pRL-null) of DNAs were diluted in 150 μl of serum-free medium, and 30 μl of Superfect™ transfect reagent was added. The DNA-Superfect mixture was incubated at room temperature for 15 min, and then, 1 ml of 10% FBS DMEM was added to this complex for an additional 3 hours of incubation. While complexes were forming, cells were washed with PBS twice without antibiotics.
The DNA-Superfect™ transfect reagent complexes were applied to the cells before incubating at 37° C. at 5% CO2 for 3 hours. After incubation, recovery medium with 10% FBS was added to bring the final volume to 1.18 ml. After 3 hours incubation, the cells were harvested and reseeded to 96 well plate (3×10^4 cells/well). After overnight incubation at 37° C. at 5% CO2, the cells were treated with Compound A for 24 hours. Finally, the activity was checked by means of luciferase assay (Promega, E1960).
For `CC(C)N(C)c1cc([C@@H](C)N2C[C@H]3N(C(=O)CN(C)N3C(=O)NCc3ccccc3)[C@@H](Cc3ccc(O)cc3)C2=O)ccc1F` [Compound 62], the IC50 is 9.7 ± 1.7 µM.

`CN1CC(=O)N2[C@@H](Cc3ccc(O)cc3)C(=O)N(Cc3cccc(N4CCCC4)c3)C[C@@H]2N1C(=O)NCc1ccccc1` [Compound 63]: the concentration for half-maximal inhibition (IC50) is 4.1 ± 0.5 µM.

`CCN(CC)c1cc(F)ccc1[C@H](C)N1C[C@H]2N(C(=O)CN(C)N2C(=O)NCc2ccccc2)[C@@H](Cc2ccc(O)cc2)C1=O` [Compound 64]: the IC50 amounted to 25.3 ± 6.6 µM.

Regarding `CC(C)N(C)c1ccc(F)c([C@H](C)N2C[C@H]3N(C(=O)CN(C)N3C(=O)NCc3ccccc3)[C@@H](Cc3ccc(O)cc3)C2=O)c1` [Compound 65], the half-maximal inhibitory concentration (IC50) was found to be 19 ± 7.1 µM.

For `CC(C)N(C)c1cccc([C@H](C)N2C[C@H]3N(C(=O)CN(C)N3C(=O)NCc3ccccc3)[C@@H](Cc3ccc(O)cc3)C2=O)c1` [Compound 66], the IC50 turned out to be 11.8 µM.

Regarding `CC(C)N(C)c1cccc([C@@H](C)N2C[C@H]3N(C(=O)CN(C)N3C(=O)NCc3ccccc3)[C@@H](Cc3ccc(O)cc3)C2=O)c1` [Compound 67], the IC50 turned out to be 6.8 µM.

For the compound `CN1CC(=O)N2[C@@H](Cc3ccc(NC=O)cc3)C(=O)N(Cc3cccc4ccccc34)C[C@@H]2N1C(=O)NCc1ccccc1` [Compound 68], the IC50 was 4.3 ± 0.8 µM.

`C[C@H]1[C@@H]2N(C(=O)CN(C)N2C(=O)NCc2ccccc2)[C@@H](Cc2ccc(O)cc2)C(=O)N1Cc1ccc(F)cc1F` [Compound 69]: the IC50 is 1.4 ± 0.7 µM.

For the compound `CN1CC(=O)N2[C@@H](Cc3ccc(O)cc3)C(=O)N(Cc3cccc4[nH]ncc34)C[C@@H]2N1C(=O)NCc1ccccc1` [Compound 70], the IC50 worked out at 8.8 ± 1.9 µM.

In the case of `CN1CC(=O)N2[C@@H](Cc3ccc(O)cc3)C(=O)N(Cc3cccc(N4CCCCC4)c3)C[C@@H]2N1C(=O)NCc1ccccc1` [Compound 71], the IC50 turned out to be 6.5 ± 0.7 µM.

In the case of `CN1CC(=O)N2[C@@H](Cc3ccc(O)cc3)C(=O)N(Cc3cccc4cnn(Cc5ccccc5[N+](=O)[O-])c34)C[C@@H]2N1C(=O)NCc1ccccc1` [Compound 74], the IC50 came to 2.1 ± 0.2 µM.

As for `CN1CC(=O)N2[C@@H](Cc3ccc(O)cc3)C(=O)N(Cc3cccc4nnn(C)c34)C[C@@H]2N1C(=O)NCc1ccccc1` [Compound 75], the IC50 worked out at 50.5 ± 18.4 µM.

Consider `CN1CC(=O)N2[C@@H](Cc3ccc(O)cc3)C(=O)N(Cc3cccc4c3nnn4C)C[C@@H]2N1C(=O)NCc1ccccc1` [Compound 76], for which the IC50 was 10.7 ± 2.5 µM.

`CN1CC(=O)N2[C@@H](Cc3ccc(O)cc3)C(=O)N(Cc3ccc4ncsc4c3)C[C@@H]2N1C(=O)NCc1ccccc1` [Compound 77]: the IC50 was found to be 7.2 ± 2.5 µM.

For `C[C@H]1[C@H]2N(C(=O)CN(C)N2C(=O)NCc2ccccc2)[C@@H](Cc2ccc(O)cc2)C(=O)N1Cc1cccc(N(C)C)c1` [Compound 78], the IC50 turned out to be 4.3 ± 0.9 µM.

In the case of `CN(Cc1ccccc1)c1cccc(CN2C[C@H]3N(C(=O)CN(C)N3C(=O)NCc3ccccc3)[C@@H](Cc3ccc(O)cc3)C2=O)c1` [Compound 79], the IC50 amounted to 16.5 ± 4.8 µM.

For the compound `C[C@H]1[C@H]2N(C(=O)CN(C)N2C(=O)NCc2ccccc2)[C@@H](Cc2ccc(O)cc2)C(=O)N1Cc1ccc(Cl)c(N(C)C)c1` [Compound 80], the IC50 turned out to be 7.9 ± 2 µM.

Turning to `CN1CC(=O)N2[C@@H](Cc3ccc(O)cc3)C(=O)N(Cc3ccc(F)cc3F)[C@@H](COC=O)[C@@H]2N1C(=O)NCc1ccccc1` [Compound 81], the IC50 is 66.1 ± 6.8 µM.

For `CN1CC(=O)N2[C@@H](Cc3ccc(O)cc3)C(=O)N(Cc3ccc(F)cc3F)[C@@H](CO)[C@@H]2N1C(=O)NCc1ccccc1` [Compound 82], the IC50 was 68.1 ± 8.9 µM.

Turning to `C[C@@H]1[C@H]2N(C(=O)CN(C)N2C(=O)NCc2ccccc2)[C@@H](Cc2ccc(O)cc2)C(=O)N1Cc1ccc(Cl)c(N(C)C)c1` [Compound 83], the IC50 is 46.4 ± 3.7 µM.

Turning to `CCOP(=O)(CC(=O)Nc1ccc(C[C@H]2C(=O)N(Cc3cccc4ccccc34)C[C@H]3N2C(=O)CN(C)N3C(=O)NCc2ccccc2)cc1)OCC` [Compound 84], the IC50 was 46.7 ± 6.7 µM.

In the case of `CN1CC(=O)N2[C@@H](Cc3ccc(O)cc3)C(=O)N(Cc3ccc4cnn(Cc5ccccc5N)c4c3)C[C@@H]2N1C(=O)NCc1ccccc1` [Compound 86], the IC50 is 9.9 ± 2.6 µM.

As to `CN(C)CCn1ncc2cccc(CN3C[C@H]4N(C(=O)CN(C)N4C(=O)NCc4ccccc4)[C@@H](Cc4ccc(O)cc4)C3=O)c21` [Compound 87], the IC50 was found to be 8.1 ± 0.8 µM.

Consider `CN1CC(=O)N2[C@@H](Cc3ccc(O)cc3)C(=O)N(Cc3cccc4c3cnn4Cc3ccccc3N)C[C@@H]2N1C(=O)NCc1ccccc1` [Compound 88], for which the IC50 stood at 2.2 ± 0.2 µM.

`CN1CC(=O)N2[C@@H](Cc3ccc(O)cc3)C(=O)N(Cc3ccc4cn[nH]c4c3)C[C@@H]2N1C(=O)NCc1ccccc1` [Compound 89]: the IC50 was 13.9 ± 0.9 µM.

Consider `CN(Cc1ccccc1N)c1cccc(CN2C[C@H]3N(C(=O)CN(C)N3C(=O)NCc3ccccc3)[C@@H](Cc3ccc(O)cc3)C2=O)c1` [Compound 90], for which the IC50 worked out at 3.9 µM.

As for `CN1CC(=O)N2[C@@H](Cc3ccc(O)cc3)C(=O)N(Cc3cccc4cn(Cc5cccc(N)c5)nc34)C[C@@H]2N1C(=O)NCc1ccccc1` [Compound 91], the IC50 came out at 2.9 ± 0.2 µM.

On to `CN1CC(=O)N2[C@@H](Cc3ccc(O)cc3)C(=O)N(Cc3cccc4cnn(Cc5cccc(N)c5)c34)C[C@@H]2N1C(=O)NCc1ccccc1` [Compound 92], for which the IC50 turned out to be 3.8 ± 1.2 µM.

With `C#CCn1ncc2ccc(CN3C[C@H]4N(C(=O)CN(C)N4C(=O)NCc4ccccc4)[C@@H](Cc4ccc(O)cc4)C3=O)cc21` [Compound 93], the IC50 came to 6.8 ± 1.3 µM.

As to `CN1CC(=O)N2[C@@H](Cc3ccc(O)cc3)C(=O)N(Cc3cccc4cnn(CCN5CCOCC5)c34)C[C@@H]2N1C(=O)NCc1ccccc1` [Compound 94], the IC50 was 7.6 ± 0.6 µM.

As to `CN1CC(=O)N2[C@@H](Cc3ccc(O)cc3)C(=O)N(Cc3ccc4cccnc4c3)C[C@@H]2N1C(=O)NCc1ccccc1` [Compound 95], the IC50 is 13.3 ± 1.4 µM.

Regarding `C#CCn1cc2c(CN3C[C@H]4N(C(=O)CN(C)N4C(=O)NCc4ccccc4)[C@@H](Cc4ccc(O)cc4)C3=O)cccc2n1` [Compound 96], the IC50 was 8.1 ± 0.9 µM.

For `CN1CC(=O)N2[C@@H](Cc3ccc(O)cc3)C(=O)N(Cc3ccccc3N3CCOCC3)C[C@@H]2N1C(=O)NCc1ccccc1` [Compound 97], the IC50 turned out to be 12.6 ± 1.2 µM.

As for `CN1CC(=O)N2[C@@H](Cc3ccc(O)cc3)C(=O)N(Cc3cccc4c3cnn4CCN3CCOCC3)C[C@@H]2N1C(=O)NCc1ccccc1` [Compound 98], the IC50 was found to be 14.4 ± 2.2 µM.

On to `COC(=O)c1ccccc1Cn1ncc2c(CN3C[C@H]4N(C(=O)CN(C)N4C(=O)NCc4ccccc4)[C@@H](Cc4ccc(O)cc4)C3=O)cccc21` [Compound 99], for which the IC50 is 2.4 ± 0.3 µM.

Consider `CN1CC(=O)N2[C@@H](Cc3ccc(O)cc3)C(=O)N(Cc3cccc4nn(CCN5CCOCC5)cc34)C[C@@H]2N1C(=O)NCc1ccccc1` [Compound 100], for which the IC50 is 2.7 ± 0.3 µM.

Consider `C#CCNC(=O)N1[C@H]2CN(Cc3cccc4ccccc34)C(=O)[C@H](Cc3ccc(O)cc3)N2C(=O)CN1C` [Compound 102], for which the IC50 is 62 ± 17 µM.

For `CN1CC(=O)N2[C@@H](Cc3ccc(O)cc3)C(=O)N(Cc3cccc4cnn(Cc5ccc(N)cc5)c34)C[C@@H]2N1C(=O)NCc1ccccc1` [Compound 104], the IC50 worked out at 4.6 ± 0.4 µM.

Regarding `C#CCn1ncc2cccc(CN3C[C@H]4N(C(=O)CN(C)N4C(=O)NCc4ccccc4)[C@@H](Cc4ccc(O)cc4)C3=O)c21` [Compound 105], the IC50 is 16.6 ± 2.7 µM.

With `C#CCn1cc2cccc(CN3C[C@H]4N(C(=O)CN(C)N4C(=O)NCc4ccccc4)[C@@H](Cc4ccc(O)cc4)C3=O)c2n1` [Compound 106], the IC50 is 2.6 ± 0.2 µM.

For the compound `C#CCNC(=O)c1ccccc1Cn1ncc2c(CN3C[C@H]4N(C(=O)CN(C)N4C(=O)NCc4ccccc4)[C@@H](Cc4ccc(O)cc4)C3=O)cccc21` [Compound 107], the IC50 was determined as 2.7 ± 0.3 µM.

`C#CCN1CC(=O)N2[C@@H](Cc3ccc(O)cc3)C(=O)N(Cc3cc(F)c(F)cc3N(C)C)C[C@@H]2N1C(=O)NCc1ccccc1` [Compound 108]: the IC50 is 1.6 ± 0.1 µM.

Take `C#CCN1CC(=O)N2[C@@H](Cc3ccc(O)cc3)C(=O)N(Cc3ccc(Cl)c(N(C)C)c3)C[C@@H]2N1C(=O)NCc1ccccc1` [Compound 110]: the IC50 came to 3.8 ± 0.6 µM.

As for `C#CCN1CC(=O)N2[C@@H](Cc3ccc(O)cc3)C(=O)N(Cc3ccc(F)cc3F)[C@@H](C)[C@@H]2N1C(=O)NCc1ccccc1` [Compound 111], the IC50 is 7.2 ± 0.8 µM.

Turning to `C#CCN1CC(=O)N2[C@@H](Cc3ccc(O)cc3)C(=O)N(Cc3cccc4c3cnn4CCN3CCOCC3)C[C@@H]2N1C(=O)NCc1ccccc1` [Compound 112], the IC50 was determined as 4.1 ± 0.8 µM.

With `CN1CC(=O)N2[C@@H]([C@H](O)c3ccc(O)cc3)C(=O)N(Cc3ccc(F)cc3F)C[C@@H]2N1C(=O)NCc1ccccc1` [Compound 113], the IC50 worked out at 7.3 ± 1.1 µM.

In the case of `C#CCN1CC(=O)N2[C@@H](Cc3ccc(O)cc3)C(=O)N(Cc3cccc4cccnc34)C[C@@H]2N1C(=O)NCc1ccccc1` [Compound 114], the IC50 was 0.4 ± 0.04 µM.

On to `CN(C)Cc1cccc(CN2C[C@H]3N(C(=O)CN(C)N3C(=O)NCc3ccccc3)[C@@H](Cc3ccc(O)cc3)C2=O)c1` [Compound 116], for which the IC50 was 8 ± 0.7 µM.

In the case of `CN1CC(=O)N2[C@@H](Cc3ccc(O)cc3)C(=O)N(Cc3cccc(N4CCOCC4)c3)C[C@@H]2N1C(=O)NCc1ccccc1` [Compound 117], the IC50 came out at 6.9 ± 0.6 µM.
